# Paper PMC8920929 (The Journal of Biological Chemistry, 2022)
# Positions count from the first letter of the chain named.
# Columns and labels:
# human TRPV3 = target: T1, human TRPV3 (Homo sapiens, UniProt Q8NET8); test: Inside-out single channel recordings of TRPV3; format: biochemical
# T1 sequence (Q8NET8 1-790): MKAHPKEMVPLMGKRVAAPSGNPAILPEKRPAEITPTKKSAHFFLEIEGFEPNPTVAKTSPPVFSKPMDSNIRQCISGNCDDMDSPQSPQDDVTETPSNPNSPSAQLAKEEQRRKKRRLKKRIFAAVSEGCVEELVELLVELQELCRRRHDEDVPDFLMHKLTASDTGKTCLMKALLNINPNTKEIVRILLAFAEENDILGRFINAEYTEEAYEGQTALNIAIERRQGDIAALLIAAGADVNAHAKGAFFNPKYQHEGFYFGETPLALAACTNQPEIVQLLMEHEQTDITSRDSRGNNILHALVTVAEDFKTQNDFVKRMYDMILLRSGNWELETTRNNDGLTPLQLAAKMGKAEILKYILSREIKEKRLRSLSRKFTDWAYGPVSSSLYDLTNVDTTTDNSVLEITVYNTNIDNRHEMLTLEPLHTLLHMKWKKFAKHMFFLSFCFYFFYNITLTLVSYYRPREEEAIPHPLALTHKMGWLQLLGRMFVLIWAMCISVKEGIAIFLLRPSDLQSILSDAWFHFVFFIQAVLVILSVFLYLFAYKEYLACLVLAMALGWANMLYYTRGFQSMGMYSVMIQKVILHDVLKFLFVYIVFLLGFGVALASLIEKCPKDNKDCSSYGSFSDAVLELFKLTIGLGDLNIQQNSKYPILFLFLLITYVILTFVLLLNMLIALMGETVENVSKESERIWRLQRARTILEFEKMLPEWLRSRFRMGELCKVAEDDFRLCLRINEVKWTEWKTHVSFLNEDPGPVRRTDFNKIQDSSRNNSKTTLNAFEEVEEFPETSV
# TRPV3-I505A = target: T2, TRPV3-I505A (Homo sapiens, UniProt Q8NET8, I505A); test: Whole-cell and single-channel recordings of the TRPV3-I505A mutant; format: cell-based; conditions: carvacrol 0.3-3.0 mM or 50 μM 2-APB
# T2 sequence (Q8NET8 1-790 I505A): T1 sequence (Q8NET8 1-790) with I505A
# TRPV3 [1] = conditions: ref [38]; cited from earlier work
# TRPV3-L508F = target: T3, TRPV3-L508F (Homo sapiens, UniProt Q8NET8, L508F); test: Whole-cell and single-channel recordings of the TRPV3-L508F mutant; format: cell-based; conditions: carvacrol 0.3-3.0 mM or 50 μM 2-APB
# T3 sequence (Q8NET8 1-790 L508F): T1 sequence (Q8NET8 1-790) with L508F
# TRPV3-L508A = target: T4, TRPV3-L508A (Homo sapiens, UniProt Q8NET8, L508A); test: Whole-cell and single-channel recordings of the TRPV3-L508A mutant; format: cell-based; conditions: carvacrol 0.3-3.0 mM or 50 μM 2-APB
# T4 sequence (Q8NET8 1-790 L508A): T1 sequence (Q8NET8 1-790) with L508A
# TRPV3-F524A = TRPV3-F524A (Homo sapiens, UniProt Q8NET8, F524A); conditions: 50 μM 2-APB; the mutant also lost surface expression
# TRPV3 [2] = conditions: ref [30], cited from earlier work; for TRPV3 currents induced: in comparison with carvacrol
# mice = conditions: ref [35]; cited from earlier work
# keratinocytes = conditions: ref [35]; cited from earlier work
# [3] = +80 mV, carvacrol 300 μM or 2-APB 50 μM alone
# [4] = FB 50 μM in the presence of 50 μM 2-APB, +80 mV
# [5] = FB 50 μM in the presence of 300 μM carvacrol, +80 mV
# TRPV3-F524A, sequence (Q8NET8 whole entry F524A): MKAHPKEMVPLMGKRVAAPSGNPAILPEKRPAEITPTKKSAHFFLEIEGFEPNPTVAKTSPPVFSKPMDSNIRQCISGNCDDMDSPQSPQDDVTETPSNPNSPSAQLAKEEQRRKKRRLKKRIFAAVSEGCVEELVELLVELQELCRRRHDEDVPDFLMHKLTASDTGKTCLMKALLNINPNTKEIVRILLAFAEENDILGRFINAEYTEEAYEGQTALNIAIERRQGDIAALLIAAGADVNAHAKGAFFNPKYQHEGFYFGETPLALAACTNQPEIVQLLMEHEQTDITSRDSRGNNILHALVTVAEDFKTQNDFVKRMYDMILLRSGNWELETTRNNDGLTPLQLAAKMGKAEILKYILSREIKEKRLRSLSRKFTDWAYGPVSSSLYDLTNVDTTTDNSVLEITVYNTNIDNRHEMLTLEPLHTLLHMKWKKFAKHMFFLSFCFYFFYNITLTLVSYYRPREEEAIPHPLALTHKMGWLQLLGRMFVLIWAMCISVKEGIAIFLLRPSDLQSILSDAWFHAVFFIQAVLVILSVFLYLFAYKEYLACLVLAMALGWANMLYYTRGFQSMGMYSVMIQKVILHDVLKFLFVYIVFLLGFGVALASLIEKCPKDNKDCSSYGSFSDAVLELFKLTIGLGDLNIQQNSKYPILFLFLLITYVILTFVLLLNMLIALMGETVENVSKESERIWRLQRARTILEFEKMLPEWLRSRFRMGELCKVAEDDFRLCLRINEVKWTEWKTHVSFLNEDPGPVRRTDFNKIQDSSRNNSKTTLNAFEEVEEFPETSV
compound,measurement,setting,value
"NCCOB(c1ccccc1)c1ccccc1 [2-APB, 2-aminoethyl diphenylborinate]",single-channel open frequency (Freq),human TRPV3; [3],65.48 ± 12.31 Hz
same,single-channel open probability (Po),human TRPV3; [3],0.77 ± 0.07
same,unitary conductance of TRPV3 single channels,"human TRPV3; inside-out patches, -80 mV to +80 mV, carvacrol 300 μM, 2-APB 50 μM, n = 4",173.2 ± 5.3 pS
same,activation of TRPV3 I505A mutant channel,TRPV3-I505A,intact activation
same,"unitary conductance, 2-APB in the absence of dyclonine",TRPV3 [1],163.6 ± 6.4 pS
same,"unitary conductance, 2-APB in the presence of TRPV3 inhibitor dyclonine",TRPV3 [1],179.2 ± 5.5 pS
same,activation of TRPV3 L508F mutant channel,TRPV3-L508F,but not 2-APB
same,activation of TRPV3 L508A mutant channel,TRPV3-L508A,still able to activate the mutant channel
same,sensitivity of TRPV3 F524A mutant channel,TRPV3-F524A,reduced sensitivity
Cc1ccc(C)c(O)c1 [p-Xylenol],TRPV3 currents induced,TRPV3 [2],small or negligible
forsythoside B [FB],"Po after addition of inhibitor, 2-APB-activated channels",human TRPV3; [4],0.12 ± 0.08
same,"open Freq after addition of inhibitor, 2-APB-activated channels",human TRPV3; [4],20.07 ± 1.77 Hz
same,"Po after addition of inhibitor, carvacrol-activated channels",human TRPV3; [5],0.12 ± 0.03
same,"open Freq after addition of inhibitor, carvacrol-activated channels",human TRPV3; [5],21.78 ± 2.59 Hz
same,effect on carvacrol-induced pruritus,mice,attenuates pruritus
same,effect on carvacrol-induced cytotoxicity of keratinocytes,keratinocytes,attenuates
Cc1ccc(C(C)C)cc1 [p-Cymene],TRPV3 currents induced,TRPV3 [2],small or negligible
CC12CCC(CC1=O)C2(C)C (stereo not drawn) [camphor],EC50,"TRPV3 [2]; read-out: EC50, activation of TRPV3, [32]",~6 mM
